Measured values: paper PMC5602100, “Retro analog concept: comparative study on physico-chemical and biological properties of selected antimicrobial peptides” (Amino Acids, 2017)
Like-named read-outs stand apart in the source and are kept apart here. Ends that are not written are not given here.

What was measured:
C. albicans ATCC 10231 = tested on: C. albicans ATCC 10231
Description: (§1) The minimal inhibitory concentrations (MICs) for bacteria and fungi were determined by the broth microdilution method according to the Clinical and Laboratory Standards Institute (CLSI) protocol (Clinical and Laboratory Standards Institute (CLSI) [2002], [2012]). For this purpose, the initial inoculums of bacteria (5 × 10^5 CFU/mL) in Mueller–Hinton Broth (Biocorp, Warsaw, Poland) were exposed to the ranging concentrations of compounds (0.125–256 µg/mL) and incubated for 18 h at 37 °C. In case of fungi, the initial inoculums of 2 × 10^3 CFU/mL in RPMI-1640 (Sigma-Aldrich, Steinheim, Germany) were exposed to the ranging concentrations of compounds (0.5–256 µg/mL) and incubated for 24 h at 37 °C. The experiments were conducted on 96-well microtiter plates, with the final volume of 100 µL. Cell densities were adjusted spectrophotometrically (Multiskan™ GO Microplate Spectrophotometer, Thermo Scientific) at the wavelengths of 600 nm for bacteria and 530 nm for fungi. The MIC was taken as the lowest drug concentration at which a noticeable growth of microorganisms was inhibited. Reference strains of bacteria: Escherichia coli ATCC 25922, E. coli ATCC 23506, Enterococcus faecalis PCM 2673, Klebsiella pneumoniae ATCC 700603, Pseudomonas aeruginosa ATCC 9027, Staphylococcus aureus ATCC 25923, S. aureus 9144, Streptococcus pneumoniae ATCC 49619, and fungi: Aspergillus niger ATCC 16404, Candida albicans ATCC 10231, and C. glabrata ATCC 15126 were obtained from Polish Collection of Microorganisms (PCM, Polish Academy of Sciences, Wroclaw, Poland) and from American Type Culture Collection (ATCC). All experiments were conducted in triplicate.

C. glabrata ATCC 15126 = tested on: C. glabrata ATCC 15126
Description: as §1

A. niger ATCC 16404 = tested on: A. niger ATCC 16404
Description: as §1

E. coli ATCC 25922 = tested on: E. coli ATCC 25922
Description: as §1

E. coli ATCC 23506 = tested on: E. coli ATCC 23506
Description: as §1

E. faecalis PCM 2673 = tested on: E. faecalis PCM 2673
Description: as §1

S. pneumoniae ATCC 49619 = tested on: S. pneumoniae ATCC 49619
Description: as §1

P. aeruginosa ATCC 9027 = tested on: P. aeruginosa ATCC 9027
Description: as §1

S. aureus ATCC 9144 = tested on: S. aureus ATCC 9144
Description: as §1

S. aureus ATCC 25923 = tested on: S. aureus ATCC 25923
Description: as §1

[1] = tested on: K. pneumoniae ATCC 700603
Description: as §1

[2] = tested on: human red blood cells (RBCs); experiment: Hemolysis assay; format: cell-based; conditions: fresh human RBCs 4% (v/v) in PBS, 60 min at 37 °C, absorbance 540 nm, 100% control 1% Triton-X 100, triplicate
Description: The hemolysis assay was conducted according to the procedure described previously in the literature (Avrahami and Shai [2004]). Fresh human red blood cells (RBCs) with EDTA as anticoagulant were rinsed three times with a phosphate-buffer saline (PBS) by centrifugation at 800×g for 10 min and resuspended in PBS. Serial dilution of peptides (1–512 µg/mL) was conducted in PBS on 96-well plates. Then the stock solution of RBCs was added to reach a final volume of 100 µL with a 4% concentration of erythrocytes (v/v). The control wells for 0 and 100% hemolysis consisted of RBCs suspended in PBS and 1% of Triton-X 100, respectively. Subsequently, the plates were incubated for 60 min at 37 °C and then centrifuged at 800×g for 10 min at 4 °C (Sorvall ST 16R Centrifuge, Thermo Scientific). After centrifugation the supernatant was carefully […] to new microtiter plates and the release of hemoglobin was monitored by measurement of absorbance at 540 nm (Multiskan™ GO Microplate Spectrophotometer, Thermo Scientific). All experiments were conducted in triplicate.

[3] = broth microdilution (CLSI), 2 × 10^3 CFU/mL in RPMI-1640, 0.5–256 µg/mL, 24 h at 37 °C, triplicate
[4] = broth microdilution (CLSI), 5 × 10^5 CFU/mL in Mueller–Hinton Broth, 0.125–256 µg/mL, 18 h at 37 °C, triplicate

Substance	MIC, C. albicans ATCC 10231 (C. albicans ATCC 10231; ATCC 10231, 24 h)	MIC, C. glabrata ATCC 15126 (C. glabrata ATCC 15126; ATCC 15126, 24 h)	MIC, A. niger ATCC 16404 (A. niger ATCC 16404; ATCC 16404, 24 h)	MIC, E. coli ATCC 25922 (E. coli ATCC 25922; ATCC 25922, 18 h)	MIC, E. coli ATCC 23506 (E. coli ATCC 23506; ATCC 23506, 18 h)	MIC, E. faecalis PCM 2673 (E. faecalis PCM 2673; PCM 2673, 18 h)	MIC, S. pneumoniae ATCC 49619 (S. pneumoniae ATCC 49619; ATCC 49619, 18 h)	MIC, P. aeruginosa ATCC 9027 (P. aeruginosa ATCC 9027; ATCC 9027, 18 h)	MIC, S. aureus ATCC 9144 (S. aureus ATCC 9144; ATCC 9144, 18 h)	MIC, S. aureus ATCC 25923 (S. aureus ATCC 25923; ATCC 25923, 18 h)	MIC, K. pneumoniae ATCC 700603 ([1]; ATCC 700603, 18 h)	MIC, C. albicans ATCC 10231 (C. albicans ATCC 10231; [3])	MIC, C. glabrata ATCC 15126 (C. glabrata ATCC 15126; [3])	MIC, A. niger ATCC 16404 (A. niger ATCC 16404; [3])	MIC, K. pneumoniae ATCC 700603 [1, 4]	further results
LIGSLVRGILPLF-NH2 [r-temporin A]	256 µg/mL	>256 µg/mL	256 µg/mL	256 µg/mL	256 µg/mL	256 µg/mL	>256 µg/mL	256 µg/mL	64 µg/mL	64 µg/mL	128 µg/mL					
GLFDVIKKVASVIGGL-NH2 [citropin 1.1]	128 µg/mL	128 µg/mL	64 µg/mL	32 µg/mL	32 µg/mL	32 µg/mL	32 µg/mL	128 µg/mL	16 µg/mL	16 µg/mL	16 µg/mL					
FSEAIKKIIDFLG-NH2 [r-aurein 1.2]	>256 µg/mL	>256 µg/mL	>256 µg/mL	256 µg/mL	256 µg/mL	256 µg/mL	256 µg/mL	>256 µg/mL	>256 µg/mL	>256 µg/mL	128 µg/mL					
LGGIVSAVKKIVDFLG-NH2 [r-citropin 1.1]	128 µg/mL	256 µg/mL	256 µg/mL	64 µg/mL	128 µg/mL	128 µg/mL	128 µg/mL		64 µg/mL	64 µg/mL	32 µg/mL					
KWKLFKKIGAVLKVL-NH2 [CAMEL]												32 µg/mL	64 µg/mL	16 µg/mL	0.125 µg/mL	MIC, E. coli ATCC 25922 (E. coli ATCC 25922; [4]): 2 µg/mL; MIC, E. coli ATCC 23506 (E. coli ATCC 23506; [4]): 1 µg/mL; MIC, E. faecalis PCM 2673 (E. faecalis PCM 2673; [4]): 8 µg/mL; MIC, S. pneumoniae ATCC 49619 (S. pneumoniae ATCC 49619; [4]): 0.5 µg/mL; MIC, P. aeruginosa ATCC 9027 (P. aeruginosa ATCC 9027; [4]): 2 µg/mL; MIC, S. aureus ATCC 9144 (S. aureus ATCC 9144; [4]): 4 µg/mL; MIC, S. aureus ATCC 25923 (S. aureus ATCC 25923; [4]): 4 µg/mL
KKLIKVFAKGFKKAKKLFKGIG-NH2 [r-pexiganan]	256 µg/mL	128 µg/mL	32 µg/mL	8 µg/mL	2 µg/mL	64 µg/mL	4 µg/mL	2 µg/mL	64 µg/mL	128 µg/mL	0.25 µg/mL					
LVKLVAGIKKFLKWK-NH2 [r-CAMEL]												256 µg/mL	>256 µg/mL	256 µg/mL	2 µg/mL	MIC, E. coli ATCC 25922 (E. coli ATCC 25922; [4]): 128 µg/mL; MIC, E. coli ATCC 23506 (E. coli ATCC 23506; [4]): 64 µg/mL; MIC, E. faecalis PCM 2673 (E. faecalis PCM 2673; [4]): 64 µg/mL; MIC, S. pneumoniae ATCC 49619 (S. pneumoniae ATCC 49619; [4]): 128 µg/mL; MIC, P. aeruginosa ATCC 9027 (P. aeruginosa ATCC 9027; [4]): 8 µg/mL; MIC, S. aureus ATCC 9144 (S. aureus ATCC 9144; [4]): 64 µg/mL; MIC, S. aureus ATCC 25923 (S. aureus ATCC 25923; [4]): 128 µg/mL; rate of hemolysis at MIC concentrations [2]: below 10%
ILRWPWWPWRRK-NH2 [omiganan]				16 µg/mL	32 µg/mL	16 µg/mL	8 µg/mL	16 µg/mL	16 µg/mL	16 µg/mL		128 µg/mL	128 µg/mL	64 µg/mL	8 µg/mL	
FLPLIGRVLSGIL-NH2 [temporin A]	256 µg/mL	>256 µg/mL	256 µg/mL	256 µg/mL	>256 µg/mL	64 µg/mL	>256 µg/mL	>256 µg/mL	8 µg/mL	4 µg/mL	128 µg/mL					
GIGKFLKKAKKFGKAFVKILKK-NH2 [pexiganan]	256 µg/mL	256 µg/mL	16 µg/mL	4 µg/mL	2 µg/mL	16 µg/mL	1 µg/mL	2 µg/mL	8 µg/mL	8 µg/mL	1 µg/mL					
GLFDIIKKIAESF-NH2 [aurein 1.2]				128 µg/mL	128 µg/mL	64 µg/mL	64 µg/mL	256 µg/mL	128 µg/mL	128 µg/mL		128 µg/mL	128 µg/mL	64 µg/mL	16 µg/mL	rate of hemolysis at MIC concentrations [2]: lower than 10%
